# ± gives the standard deviation of the averaged measurements.
# Legend:
# Assay in all cases: level (log10 ratio to DMSO vehicle control); higher = higher biomarker level / cell amount than vehicle control
# Conditions in all cases: in DMSO
# Perfluorobutanoic acid = compound: O=C(O)C(F)(F)C(F)(F)C(F)(F)F [Perfluorobutanoic acid]
# Protocol: (§1)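 BioMAP Diversity Plus panel of 12 human primary cell co-culture systems (3C, 4H, LPS, SAg, BT, BF4T, BE3C, CASM3C, HDF3CGF, KF3CT, MyoF, Mphg). Compounds were added 1 h before stimulation and left for 24 h (MyoF 48 h; BT 72 h for soluble read-outs or 6 d for IgG). Biomarkers were read by ELISA, cytotoxicity by SRB, PBMC viability and proliferation by Alamar Blue. Each well value was divided by the mean of 8 DMSO control wells on the same plate and log10 transformed; duplicate blinded samples were tested at 4 concentrations.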
# [1] = compound: O=C(O)C(F)(F)OC(F)(F)C(F)(F)OC(F)(F)C(=O)O [Perfluoro-3,6-dioxaoctane-1,8-dioic acid]
# Protocol: as §1
# [2] = compound: FC(F)C(F)(F)COCC1CO1 [((2,2,3,3-Tetrafluoropropoxy)methyl)oxirane]
# Protocol: as §1
# [3] = compound: CCN(CCO)S(=O)(=O)C(F)(F)C(F)(F)C(F)(F)C(F)(F)C(F)(F)C(F)(F)C(F)(F)C(F)(F)F [N-Ethyl-N-(2-hydroxyethyl)perfluorooctanesulfonamide]
# Protocol: as §1
# [4] = compound: C=CC(F)(F)C(F)(F)C(F)(F)C(F)(F)C(F)(F)C(F)(F)C(F)(F)C(F)(F)C=C [1,8-Divinylperfluorooctane]
# Protocol: as §1
# [5] = compound: O=C(O)C(F)(F)C(F)(F)C(F)F [4H-Perfluorobutanoic acid]
# Protocol: as §1
# [6] = compound: O=S(=O)(O)C(F)(F)C(F)(F)C(F)(F)C(F)(F)C(F)(F)C(F)(F)F [Perfluorohexanesulfonic acid]
# Protocol: as §1
Test System,level (log10) (Perfluorobutanoic acid; 6700 nM),level (log10) (Perfluorobutanoic acid; 20000 nM),level (log10) (Perfluorobutanoic acid; 60000 nM),level (log10) ([1]; 6700 nM),level (log10) ([1]; 20000 nM),level (log10) ([1]; 60000 nM),level (log10) ([2]; 6700 nM),level (log10) ([2]; 20000 nM),level (log10) ([2]; 60000 nM),level (log10) ([3]; 6700 nM),level (log10) ([3]; 20000 nM),level (log10) ([4]; 6700 nM),level (log10) ([4]; 20000 nM),level (log10) ([5]; 6700 nM),level (log10) ([5]; 20000 nM),level (log10) ([5]; 60000 nM),level (log10) ([6]; 6700 nM),level (log10) ([6]; 20000 nM),level (log10) ([6]; 60000 nM)
KF3CT:PAI-I,-0.0055 ± 0.0078,-0.019 ± 0.0014,0,-0.0145 ± 0.025,-0.0125 ± 0.00071,0.003 ± 0.018,0.004,-0.0085 ± 0.005,-0.0015 ± 0.012,-0.0995 ± 0.011,-0.193 ± 0.014,0.0215 ± 0.00071,0.018 ± 0.013,0.0015 ± 0.022,0.046 ± 0.02,-0.0075 ± 0.073,-0.0105 ± 0.012,-0.0325 ± 0.00071,-0.0435 ± 0.0021
3C:CD106/VCAM-1,-0.002 ± 0.0028,-0.009 ± 0.0071,-0.0225 ± 0.011,0.0105 ± 0.016,-0.002 ± 0.02,0.0015 ± 0.0064,-0.0005 ± 0.0092,-0.0225 ± 0.023,-0.0125 ± 0.011,0.0005 ± 0.005,0.005 ± 0.0085,-0.018 ± 0.017,-0.003 ± 0.011,-0.0075 ± 0.04,-0.0265 ± 0.005,0.006 ± 0.0028,-0.0085 ± 0.026,-0.029 ± 0.0042,-0.014 ± 0.025
KF3CT:CXCL8/IL-8,0.012 ± 0.013,-0.009 ± 0.0085,0.0045 ± 0.013,-0.0015 ± 0.0078,0.0025 ± 0.033,0.026 ± 0.025,-0.024 ± 0.02,-0.0035 ± 0.0092,-0.001 ± 0.0071,-0.0975 ± 0.012,-0.0935 ± 0.0064,-0.0035 ± 0.033,0.011 ± 0.0057,0.0025 ± 0.0078,0.01 ± 0.0085,0.017 ± 0.0042,0.015 ± 0.02,0.03 ± 0.0057,0.038 ± 0.0057
CASM3C:CD142/Tissue Factor,-0.002,0.007 ± 0.0099,-0.0505 ± 0.00071,-0.012 ± 0.013,-0.0275 ± 0.022,0.0215 ± 0.053,0.0075 ± 0.013,-0.0005 ± 0.037,0.0385 ± 0.083,-0.0325 ± 0.012,0.0145 ± 0.022,0.0035 ± 0.028,-0.0085 ± 0.005,0.0045 ± 0.14,-0.039 ± 0.093,-0.0415 ± 0.037,0.0145 ± 0.047,-0.0005 ± 0.023,0.005 ± 0.0014
CASM3C:LDLR,-0.013 ± 0.028,-0.018 ± 0.02,0.0095 ± 0.015,0.015 ± 0.034,-0.0115 ± 0.0035,0.0155 ± 0.015,-0.0165 ± 0.021,-0.02 ± 0.0042,0.007 ± 0.024,-0.076 ± 0.0057,-0.223 ± 0.021,0.008,0.0495 ± 0.019,-0.0785 ± 0.037,-0.039 ± 0.0042,-0.0235 ± 0.026,-0.014 ± 0.0042,-0.0055 ± 0.0035,0.0155 ± 0.039
lMphg:CD106/VCAM-1,-0.0165 ± 0.025,-0.007 ± 0.034,-0.0085 ± 0.022,-0.013 ± 0.0071,-0.0165 ± 0.0021,-0.0165 ± 0.036,-0.016 ± 0.038,-0.0155 ± 0.025,-0.017 ± 0.017,-0.037 ± 0.03,-0.0435 ± 0.035,-0.014 ± 0.018,-0.016 ± 0.016,0.003 ± 0.0028,0.0125 ± 0.016,0.003 ± 0.014,-0.011 ± 0.044,0.0075 ± 0.0035,0.005 ± 0.011
lMphg:sIL-10,0.034 ± 0.013,-0.005 ± 0.03,-0.02 ± 0.037,-0.0425 ± 0.011,-0.0615 ± 0.036,-0.058 ± 0.055,-0.087 ± 0.024,-0.043 ± 0.027,0.0075 ± 0.018,0 ± 0.024,-0.0505 ± 0.028,-0.053 ± 0.085,-0.0135 ± 0.03,-0.0495 ± 0.096,-0.0605 ± 0.054,-0.019 ± 0.0014,-0.0345 ± 0.061,-0.073 ± 0.1,-0.239 ± 0.025
lMphg:CCL2/MCP-1,-0.0205 ± 0.021,-0.0165 ± 0.018,0.0135 ± 0.022,-0.0165 ± 0.021,-0.019 ± 0.027,-0.008 ± 0.0057,-0.039 ± 0.034,-0.018 ± 0.048,-0.0095 ± 0.029,0.007 ± 0.034,0.002 ± 0.023,-0.0195 ± 0.013,0.0125 ± 0.03,-0.024 ± 0.027,-0.0125 ± 0.0035,0.0005 ± 0.021,-0.014 ± 0.0085,0.006 ± 0.037,0.054 ± 0.024
CASM3C:Serum Amyloid A,-0.021,0.0225 ± 0.016,-0.009 ± 0.041,-0.012 ± 0.0028,-0.0235 ± 0.011,0.0265 ± 0.06,-0.004 ± 0.011,0.0215 ± 0.0035,-0.0235 ± 0.0092,0.0875 ± 0.037,0.129 ± 0.042,-0.0145 ± 0.0035,-0.011 ± 0.0085,-0.056 ± 0.038,-0.083 ± 0.055,-0.0715 ± 0.11,-0.0215 ± 0.057,-0.0085 ± 0.015,0.007 ± 0.021
CASM3C:CD106/VCAM-1,-0.007 ± 0.016,-0.006 ± 0.0014,-0.039 ± 0.018,-0.005 ± 0.0014,-0.003 ± 0.0042,0.0175 ± 0.042,0.0035 ± 0.022,-0.012 ± 0.037,0.026 ± 0.033,-0.085 ± 0.0057,-0.219 ± 0.021,-0.018 ± 0.0042,-0.019 ± 0.02,0.031 ± 0.057,0.041 ± 0.014,0.04 ± 0.0085,-0.0145 ± 0.023,-0.0175 ± 0.016,-0.047 ± 0.024

# Reference: the supplement of paper PMC10331698
